According to patent US20240374743A1, “BLETILLA STRIATA POLYSACCHARIDE IRON COMPLEX, PREPARATION METHOD THEREFOR AND USE THEREOF” (priority 2023, published 2024):

System: mouse model of iron deficiency anemia
Test: Anti-iron deficiency anemia test in mice
Type: in vivo, ICR mice
Protocol: Experimental animals: 35 ICR mice, clean grade, body weight 20-25 g, female.
Establishment of a mouse model of iron deficiency anemia: All mice were kept in a stainless steel cage, in which wood dust was used as padding to prevent iron from other sources from affecting the experimental results. The mice were adaptively fed at room temperature (24±1° C.) and humidity 50% for 3 days and then randomly divided into 7 groups, with 5 mice in each group. Five mice fed with basal feed (Fe>100 mg kg^−1) were used as a blank control group, and the remaining 30 mice were given a low-iron diet (Fe: 10 mg·kg^−1, AIN93 standard) and randomly divided into a model group (Model), a positive drug (Niferex) group, a ferrous sulfate (FeSO4) group, and low-dose, medium-dose and high-dose groups of the Bletilla striata polysaccharide-iron (III) complex prepared in Example 4. After adaptive feeding, 0.1 mL of blood was taken from the cheeks of all mice, and the routine blood test data, serum iron three-term test data, and other data were determined by using a blood cell analyzer and used as normal values before modeling. Blood was drawn from the cheek of each mouse twice a week, but the blood was not collected. The mice in each group got free access to water. After three consecutive weeks of feeding, 0.2 mL of blood was collected from the cheeks of the mice in each group and then measured for various hematological indexes, and the body weight changes were recorded and plotted. […] Mice that failed in modeling were excluded and were not included in any drug group.
Method of administration: Mice were administered by gavage at 8 am every day for 28 consecutive days. During gavage, the mice in each group got free access to water and fed normal diet. The mice in the blank control group and the model control group were given the same volume of distilled water, the mice in the positive drug group were given a drug with an Fe content of 0.039 mg/kg, the mice in FeSO4 group were given a drug with an Fe content of 0.039 mg/kg, and the mice in the low-dose, medium-dose and high-dose groups of the Bletilla striata polysaccharide-iron (III) complex were given drugs with Fe contents of 0.0195 mg/kg, 0.039 mg/kg, and 0.078 mg/kg, respectively. Except the blank control group, the other six groups were given a low-iron feed. The body weight was weighed, recorded, and plotted once a week, and the animal state was observed.
Sample collection: After the last administration by gavage, the mice in each group got free access to water for 12 hours and sacrificed, whole blood was collected from the heart to determine various biochemical indexes, including hemoglobin content (Hb) in red blood cells, red blood cell count (RBC), hematocrit (HCT), mean corpuscular volume (MCV), mean corpuscular hemoglobin content (MCH), mean corpuscular hemoglobin concentration (MCHC), red blood cell volume distribution width (RDW), serum iron (SI) content, total iron binding capacity (TIBC), and erythropoietin (EPO). Liver and spleen tissues were taken, weighed, and recorded, and the organ index was calculated. The organ coefficient was calculated according to the following equation, and a histogram was plotted for analysis: […]

[1] = Fe 0.039 mg/kg (medium-dose group), gavage 28 days
[2] = gavage 28 days, complex low-, medium- and high-dose groups, Niferex and FeSO4 Fe 0.039 mg/kg

## ferrous sulfate [FeSO4]
[1]
  HCT: 0.29 ± 0.05
  MCH: 17.83 ± 0.63
  MCHC: 400.49 ± 16.03
  MCV: 51.20 ± 2.07
  RBC value: 6.85 10^12/L
  RDW: 25.56 ± 2.99
Fe 0.039 mg/kg, gavage 28 days
  effect on EPO compared with model group: no regulatory effect on EPO
  liver index compared with model group: not strong
Fe 0.039 mg/kg, gavage daily 28 days
  body weight after 28 days of administration (comparison between groups): extremely significantly different from that in the control group
[2]
  Hb value compared with control group: not significantly different from that in the control group
  effect on total iron binding capacity (TIBC): best effect
